Key:
[1] = biological target: Neuronal acetylcholine receptor subunit alpha-4/beta-2 (Rattus norvegicus, UniProt P09483+P12390); assay: Binding affinity towards rat Nicotinic acetylcholine receptor alpha4-beta2 expressed in Xenopus oocytes using [3H]epibatidine as radioligand
[2] = biological target: Neuronal acetylcholine receptor subunit alpha-3/beta-2 (Rattus norvegicus, UniProt P12390+P04757); assay: Binding affinity towards rat Nicotinic acetylcholine receptor alpha3-beta2 expressed in Xenopus oocytes using [3H]epibatidine as radioligand
Sequence of Neuronal acetylcholine receptor subunit alpha-3/beta-2 (P12390 whole entry): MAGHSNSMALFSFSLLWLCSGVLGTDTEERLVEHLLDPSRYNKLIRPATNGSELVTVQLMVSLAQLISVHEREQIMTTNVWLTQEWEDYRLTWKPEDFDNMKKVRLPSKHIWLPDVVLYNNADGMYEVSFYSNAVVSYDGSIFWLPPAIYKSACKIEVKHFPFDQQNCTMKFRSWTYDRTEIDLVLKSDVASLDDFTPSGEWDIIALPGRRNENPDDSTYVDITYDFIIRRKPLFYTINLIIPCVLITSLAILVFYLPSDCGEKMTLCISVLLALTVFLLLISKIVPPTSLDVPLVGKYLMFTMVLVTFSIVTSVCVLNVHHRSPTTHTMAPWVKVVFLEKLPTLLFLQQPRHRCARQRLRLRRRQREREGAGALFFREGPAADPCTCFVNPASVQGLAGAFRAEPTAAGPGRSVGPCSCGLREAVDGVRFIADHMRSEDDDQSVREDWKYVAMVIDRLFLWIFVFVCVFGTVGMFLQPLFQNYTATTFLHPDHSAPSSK
Sequence of Neuronal acetylcholine receptor subunit alpha-3/beta-2 (P04757 whole entry): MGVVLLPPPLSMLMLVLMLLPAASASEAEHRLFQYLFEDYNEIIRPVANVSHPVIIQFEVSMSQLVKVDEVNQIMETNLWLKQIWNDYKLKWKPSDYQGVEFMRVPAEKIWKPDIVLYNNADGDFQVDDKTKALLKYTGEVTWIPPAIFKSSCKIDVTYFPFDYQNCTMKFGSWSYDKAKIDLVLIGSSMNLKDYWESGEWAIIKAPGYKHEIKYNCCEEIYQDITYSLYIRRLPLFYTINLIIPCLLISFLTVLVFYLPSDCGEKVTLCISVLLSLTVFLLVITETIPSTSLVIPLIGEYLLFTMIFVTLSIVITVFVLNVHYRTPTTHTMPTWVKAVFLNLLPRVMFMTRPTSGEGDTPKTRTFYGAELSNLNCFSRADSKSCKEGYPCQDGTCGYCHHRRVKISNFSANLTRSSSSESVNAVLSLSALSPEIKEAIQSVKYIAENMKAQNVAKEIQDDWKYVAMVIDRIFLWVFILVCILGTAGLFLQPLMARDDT

Sequence of Neuronal acetylcholine receptor subunit alpha-4/beta-2 (P09483 whole entry): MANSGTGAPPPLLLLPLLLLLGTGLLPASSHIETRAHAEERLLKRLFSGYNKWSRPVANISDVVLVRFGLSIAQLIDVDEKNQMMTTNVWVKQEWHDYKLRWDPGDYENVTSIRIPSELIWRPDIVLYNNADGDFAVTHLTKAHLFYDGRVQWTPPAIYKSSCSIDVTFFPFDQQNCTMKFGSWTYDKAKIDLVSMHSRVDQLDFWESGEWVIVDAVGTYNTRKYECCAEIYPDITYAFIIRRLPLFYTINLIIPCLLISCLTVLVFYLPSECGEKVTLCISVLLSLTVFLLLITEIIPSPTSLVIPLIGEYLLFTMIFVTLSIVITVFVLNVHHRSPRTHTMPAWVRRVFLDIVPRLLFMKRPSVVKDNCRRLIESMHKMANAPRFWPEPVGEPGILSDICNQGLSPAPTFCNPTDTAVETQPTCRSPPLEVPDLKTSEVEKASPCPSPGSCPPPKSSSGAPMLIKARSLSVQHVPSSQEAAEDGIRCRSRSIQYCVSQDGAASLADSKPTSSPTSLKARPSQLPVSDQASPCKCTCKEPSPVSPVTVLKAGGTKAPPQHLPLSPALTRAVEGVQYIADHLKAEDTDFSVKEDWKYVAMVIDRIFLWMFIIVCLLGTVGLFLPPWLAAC
Sequence of Neuronal acetylcholine receptor subunit alpha-4/beta-2 (P12390 whole entry): as the sequence (P12390 whole entry) above

Row | Compound | Ki [1] [pM] | Ki [2] [pM]
1 | c1cncc(C2CC3CCC2N3)c1 (configuration not stated) [2-(pyridin-3-yl)-7-aza-bicyclo[2.2.1]heptane] | 9 | –
2 | Fc1ccc(C2CC3CCC2N3)cn1 [(R)-2-(6-Fluoro-pyridin-3-yl)-7-aza-bicyclo[2.2.1]heptane] | – | 4

Reference: BindingDB's records for doi:10.1016/j.bmcl.2004.02.007 (Research Triangle Institute, 2004)
